Assay results reported in PMC12876990, “Targeting secreted PLA2 interactions with EGFR and vimentin to arrest prostate tumour growth” (Cell Death & Disease, 2025).
Square brackets hold non-standard residues; d marks the D form. Peptide text beside a SMILES is read from it. 2Nal = N[C@@H](Cc1ccc2ccccc2c1)C(=O)O

Experiments:
[1] = 28-day oral toxicity study: functional observation; type: in vivo, male Sprague Dawley rats; conditions: for Grip strength (mean) Forelimb / Grip strength (mean) Hind limb: week 4
Protocol: 3.6. Procedure for test item administration […]
intragastric cannula attached to a 3 mL syringe.
3.7. Observation of animals […]
groups: Day 29; recovery groups: Day 43).
(§1) (Appendix C Study Data Spreadsheets). […]
report (Appendix C Study Data Spreadsheets). […]
3.7.5. Functional observation […]
s upine drop, grip strength test. […]

[2] = 28-day oral toxicity study: haematology analysis; type: in vivo, male Sprague Dawley rats; conditions: for MCHC: calculated value
Protocol: Blood analyse s (haematology and biochemistry) w ere performed on all animals on Day 29 (main groups) or Day 43 (recovery groups). Approximately 4 mL of blood was taken from ea ch animal by cardiac puncture using a 10 mL syringe and 21-gauge needle. The procedure involved anaesthetising by intraperitoneal injection of sodi um pentobarbitone using a 2 mL sterile plastic syringe attached to a 26-gauge needle (Terumo).
For each blood sampling, the blood was divided into two aliquots: (i) one was placed into a tube containing EDTA (for whole blood and EDTA plasma), (ii) one aliquot into a Li-heparin tube.
3.9.1. Haematology analysis
The following parameters were analysed: Red blood cell (RBC), haemoglobin (Hb), haematocrit (Hct), mean corpuscular volume (MCV), mean corpuscular haemoglobin (MCH), mean corpuscular haemoglobin concentration (MCHC), platelet count (PLT), mean platelet volume (MPV), white blood count (WBC), neutrophil (Neut), lymphocyte (Lymph), monocytes (Mono), eosinophil (Eos), basophil (Baso).
Results and methods of analysis were attached in an appendix to the report (Appendix D Haematology and Biochemistry). Blood smear s for cell morphology were prepared. By convention only abnormal findings on smear evaluation were reported. […]
Haematology and Biochemistry). […]
as §1

[3] = test system: PCa cell lines LNCaP, PC-3 and DU145; experiment: Cell permeability of c2 by live cell confocal imaging of its autofluorescence; type: cell-based; conditions: 100 µM, 24 hours
Protocol: The naphthyl groups in the structure of c2 give the compound a unique autofluorescence emission spectral signature, which was characterised (Fig. S3a, b), allowing the direct imaging of c2 internalisation and localisation. […] Internalisation confirmed via z-stack (Fig. S3c).
For all live cell imaging, cells were seeded on a 24-well glass-bottom Senso plates (Greiner Bio-one) and imaged at 37 °C and 5% CO2 with the LSM 800 (Zeiss). For c2 imaging, cells were incubated with c2 100 µM for 24 hours before excitation with 488 nm and emission 500-700 nm detected. For hGIIA entry, PC-3, LNCaP, DU145 and RA57 hGIIA/AF647 in cells were stained with 30 nM DAPI for 10 mins, cells were washed with PBS and then stained with 1 μg/mL of propidium iodide for 10 mins to confirm cell viability. Cells were washed three times with PBS and then cells were incubated with 200 ng/mL hGIIA/AF647, with entry imaged over 16 hours. Imaging parameters were kept consistent across all time points and cell lines.

[4] = Day 43, Gr 5 recovery, 20 mg/kg

For `CC(C)C[C@@H]1NC(=O)[C@H](Cc2ccc3ccccc3c2)NC(=O)[C@H](CCCNC(=N)N)NC(=O)[C@H](Cc2ccc3ccccc3c2)NC(=O)[C@H](CO)NC1=O` [c2, cyclo-((2-Nal)-Leu-Ser-(2-Nal)-Arg)] (cyclo([2Nal]LS[2Nal]R)), the functional observations tests ([1]; Week 4) was “no effect”, the “Grip strength (mean) Forelimb” value ([1]; Gr 2, 1 mg/kg) was 487 ± 33.0 and the “Grip strength (mean) Hind limb” value ([1]; Gr 2, 1 mg/kg) was 59 ± 3.2. The “Grip strength (mean) Forelimb” value ([1]; Gr 3, 20 mg/kg) was 458 ± 39.9, the “Grip strength (mean) Hind limb” value ([1]; Gr 3, 20 mg/kg) was 57 ± 2.5 and the “Grip strength (mean) Forelimb” value ([1]; Gr 5, 20 mg/kg) was 456 ± 47.2. The “Grip strength (mean) Hind limb” value ([1]; Gr 5, 20 mg/kg) was 61 ± 3.8, the Hb ([2]; Day 29, Gr 2, 1 mg/kg) was 157 ± 4.7 g/L and the PLT ([2]; Day 29, Gr 2, 1 mg/kg) was 1184 ± 127.7 x 109 / L. For the same molecule, the MCHC ([2]; Day 29, Gr 2, 1 mg/kg) was 344 ± 5.1 g/L, the Hb ([2]; Day 29, Gr 3, 20 mg/kg) was 159 ± 3.0 g/L and the PLT ([2]; Day 29, Gr 3, 20 mg/kg) was 1191 ± 93.8 x 109 / L. For the same molecule, the MCHC ([2]; Day 29, Gr 3, 20 mg/kg) was 351 ± 4.0 g/L, the blood haematology ([2]; Day 29 and Day 43) was “no obvious test item related effect” and the Baso [2, 4] was 0 L⁻¹. For the same molecule, the Hb [2, 4] was 154 ± 1.8 g/L, the PLT [2, 4] was 1182 ± 143.7 x 109 / L and the MCHC [2, 4] was 353 ± 4.2 g/L. The “c2 detection in cells” value [3] was “detected in all cell lines”.
